Results: US12540131B2 (Merck Sharp & Dohme LLC, priority 2019, dated 2026)

Biological target: GST tagged truncated human mutant G2019S LRRK2 (Homo sapiens (Human), UniProt Q5S007, G2019S)
Experiment: LRRK2 Km ATP LanthaScreen Assay
Assay type: biochemical
Conditions: G2019S LRRK2, 134 μM ATP (Km ATP), mean values
Procedure, shortened: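 Enzyme (GST-tagged, truncated) was preincubated with compound for 15 min at RT in 50 mM Tris pH 8.5, 10 mM MgCl2, 0.01% Brij-35, 1 mM EGTA, 2 mM DTT and 0.05 mM orthovanadate. Fluorescein-LRRKtide and 134 μM ATP (Km) were then added for 90 min. EDTA and Tb-anti-pERM antibody stopped the reaction; the TR-FRET 520/495 ratio gave 4-parameter IC50s, reported as mean pIC50.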

GST tagged truncated human mutant G2019S LRRK2, sequence (Q5S007 970-2527 G2019S): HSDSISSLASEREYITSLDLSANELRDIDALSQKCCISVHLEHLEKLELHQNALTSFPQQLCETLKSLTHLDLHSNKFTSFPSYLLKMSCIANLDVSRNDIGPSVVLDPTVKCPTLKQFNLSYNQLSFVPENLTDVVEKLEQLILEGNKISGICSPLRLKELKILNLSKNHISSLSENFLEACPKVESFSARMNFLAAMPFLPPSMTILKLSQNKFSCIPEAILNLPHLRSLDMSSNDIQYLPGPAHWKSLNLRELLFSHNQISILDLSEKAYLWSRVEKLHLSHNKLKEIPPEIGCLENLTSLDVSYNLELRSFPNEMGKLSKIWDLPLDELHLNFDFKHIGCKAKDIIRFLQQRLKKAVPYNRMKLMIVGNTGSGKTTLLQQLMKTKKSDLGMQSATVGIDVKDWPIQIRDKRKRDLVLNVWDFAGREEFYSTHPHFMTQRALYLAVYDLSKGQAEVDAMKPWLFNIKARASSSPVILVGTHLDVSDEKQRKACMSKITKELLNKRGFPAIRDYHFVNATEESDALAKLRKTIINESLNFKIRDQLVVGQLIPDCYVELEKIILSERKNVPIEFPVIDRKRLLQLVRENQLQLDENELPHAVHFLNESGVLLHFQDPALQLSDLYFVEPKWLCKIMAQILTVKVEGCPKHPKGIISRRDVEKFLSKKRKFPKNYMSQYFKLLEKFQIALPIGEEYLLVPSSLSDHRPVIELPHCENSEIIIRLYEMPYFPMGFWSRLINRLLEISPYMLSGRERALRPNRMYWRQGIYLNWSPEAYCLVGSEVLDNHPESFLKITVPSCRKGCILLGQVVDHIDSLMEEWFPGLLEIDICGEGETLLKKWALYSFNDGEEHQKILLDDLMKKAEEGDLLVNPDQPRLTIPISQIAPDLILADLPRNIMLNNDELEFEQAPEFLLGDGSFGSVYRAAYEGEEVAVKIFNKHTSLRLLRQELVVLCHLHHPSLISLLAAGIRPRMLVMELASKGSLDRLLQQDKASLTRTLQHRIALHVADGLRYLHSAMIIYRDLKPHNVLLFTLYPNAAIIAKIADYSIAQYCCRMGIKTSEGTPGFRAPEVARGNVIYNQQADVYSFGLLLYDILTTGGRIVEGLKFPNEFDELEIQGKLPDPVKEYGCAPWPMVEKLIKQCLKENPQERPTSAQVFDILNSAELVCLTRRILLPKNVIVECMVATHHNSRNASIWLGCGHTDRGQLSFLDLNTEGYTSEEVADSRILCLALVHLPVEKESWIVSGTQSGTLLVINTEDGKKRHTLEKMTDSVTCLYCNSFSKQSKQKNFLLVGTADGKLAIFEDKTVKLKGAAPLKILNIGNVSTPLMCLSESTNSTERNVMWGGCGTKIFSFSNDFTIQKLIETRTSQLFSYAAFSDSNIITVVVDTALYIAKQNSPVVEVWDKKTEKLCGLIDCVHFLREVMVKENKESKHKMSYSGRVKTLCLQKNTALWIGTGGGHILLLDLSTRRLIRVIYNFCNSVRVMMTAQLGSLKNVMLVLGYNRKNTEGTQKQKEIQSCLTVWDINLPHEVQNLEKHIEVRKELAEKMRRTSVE

SMILES | LRRK2 pIC50
Cc1cc2cnc(Nc3cnn(C4CC4(F)F)c3Cl)nc2cc1[C@@H]1CCN(C2COC[C@@H]2O)C[C@H]1F (single isomer, unassigned) [Ex-4.137, (R)(3S,4S)(3S,4S) or (R)(3S,4S)(3R,4R) or (R)(3R,4R)(3S,4S) or (R)(3R,4R)(3R,4R) or (S)(3S,4S)(3S,4S) or (S)(3S,4S)(3R,4R) or (S)(3R,4R)(3S,4S) or (S)(3R,4R)(3R,4R) 4-[4-(2-{[5-chloro-1-(2,2-difluorocyclopropyl)-1H-pyrazol-4-yl]amino}-6-methylquinazolin-7-yl)-3-fluoropiperidin-1-yl]oxolan-3-ol] | >9.20
Cc1cc2cnc(Nc3cnn(C4CC4(F)F)c3Cl)nc2cc1[C@@H]1CCN(C2COC[C@H]2O)C[C@H]1F (single isomer, unassigned) [Ex-4.138, (R)(3S,4S)(3S,4S) or (R)(3S,4S)(3R,4R) or (R)(3R,4R)(3S,4S) or (R)(3R,4R)(3R,4R) or (S)(3S,4S)(3S,4S) or (S)(3S,4S)(3R,4R) or (S)(3R,4R)(3S,4S) or (S)(3R,4R)(3R,4R) 4-[4-(2-{[5-chloro-1-(2,2-difluorocyclopropyl)-1H-pyrazol-4-yl]amino}-6-methylquinazolin-7-yl)-3-fluoropiperidin-1-yl]oxolan-3-ol] | 8.44
Cc1cc2cnc(Nc3cnn(C4CC4(F)F)c3Cl)nc2cc1[C@H]1CCN(C2COC[C@@H]2O)C[C@@H]1F (single isomer, unassigned) [Ex-4.139, (R)(3S,4S)(3S,4S) or (R)(3S,4S)(3R,4R) or (R)(3R,4R)(3S,4S) or (R)(3R,4R)(3R,4R) or (S)(3S,4S)(3S,4S) or (S)(3S,4S)(3R,4R) or (S)(3R,4R)(3S,4S) or (S)(3R,4R)(3R,4R) 4-[4-(2-{[5-chloro-1-(2,2-difluorocyclopropyl)-1H-pyrazol-4-yl]amino}-6-methylquinazolin-7-yl)-3-fluoropiperidin-1-yl]oxolan-3-ol] | >9.20
Cc1cc2cnc(Nc3cnn(C4CC4(F)F)c3Cl)nc2cc1[C@H]1CCN(C2COC[C@H]2O)C[C@@H]1F (single isomer, unassigned) [Ex-4.140, (R)(3S,4S)(3S,4S) or (R)(3S,4S)(3R,4R) or (R)(3R,4R)(3S,4S) or (R)(3R,4R)(3R,4R) or (S)(3S,4S)(3S,4S) or (S)(3S,4S)(3R,4R) or (S)(3R,4R)(3S,4S) or (S)(3R,4R)(3R,4R) 4-[4-(2-{[5-chloro-1-(2,2-difluorocyclopropyl)-1H-pyrazol-4-yl]amino}-6-methylquinazolin-7-yl)-3-fluoropiperidin-1-yl]oxolan-3-ol] | 9.19
Cc1cc2cnc(Nc3cnn(C4CC4(F)F)c3C)nc2cc1C1CCN([C@H]2COC[C@H]2O)CC1 (single isomer, unassigned) [Ex-4.141, (R)(3S,4S) or (S)(3S,4S) or (R)(3R,4R) or (S)(3R,4R) 4-[4-(2-{[1-(2,2-difluorocyclopropyl)-5-methyl-1H-pyrazol-4-yl]amino}-6-methylquinazolin-7-yl)piperidin-1-yl]oxolan-3-ol] | >9.20
Cc1cc2cnc(Nc3cnn(C4CC4(F)F)c3C)nc2cc1C1CCN([C@@H]2COC[C@@H]2O)CC1 (single isomer, unassigned) [Ex-4.142, (R)(3S,4S) or (S)(3S,4S) or (R)(3R,4R) or (S)(3R,4R) 4-[4-(2-{[1-(2,2-difluorocyclopropyl)-5-methyl-1H-pyrazol-4-yl]amino}-6-methylquinazolin-7-yl)piperidin-1-yl]oxolan-3-ol] | 8.94
Cc1cc2cnc(Nc3cnn(C4CC4(F)F)c3C)nc2cc1[C@@H]1CCN([C@H]2COC[C@H]2O)C[C@H]1F (single isomer, unassigned) [Ex-4.143, (R)(3S,4S)(3S,4S) or (R)(3S,4S)(3R,4R) or (R)(3R,4R)(3S,4S) or (R)(3R,4R)(3R,4R) or (S)(3S,4S)(3S,4S) or (S)(3S,4S)(3R,4R) or (S)(3R,4R)(3S,4S) or (S)(3R,4R)(3R,4R) 4-[4-(2-{[1-(2,2-difluorocyclopropyl)-5-methyl-1H-pyrazol-4-yl]amino}-6-methylquinazolin-7-yl)-3-fluoropiperidin-1-yl]oxolan-3-ol] | >9.20
Cc1cc2cnc(Nc3cnn(C4CC4(F)F)c3C)nc2cc1[C@@H]1CCN([C@@H]2COC[C@@H]2O)C[C@H]1F (single isomer, unassigned) [Ex-4.144, (R)(3S,4S)(3S,4S) or (R)(3S,4S)(3R,4R) or (R)(3R,4R)(3S,4S) or (R)(3R,4R)(3R,4R) or (S)(3S,4S)(3S,4S) or (S)(3S,4S)(3R,4R) or (S)(3R,4R)(3S,4S) or (S)(3R,4R)(3R,4R) 4-[4-(2-{[1-(2,2-difluorocyclopropyl)-5-methyl-1H-pyrazol-4-yl]amino}-6-methylquinazolin-7-yl)-3-fluoropiperidin-1-yl]oxolan-3-ol] | 8.68
Cc1cc2cnc(Nc3cnn(C4CC4(F)F)c3Cl)nc2cc1[C@@H]1CCN([C@H]2COC[C@H]2O)C[C@H]1F (single isomer, unassigned) [Ex-4.145, (R)(3S,4S)(3S,4S) or (R)(3S,4S)(3R,4R) or (R)(3R,4R)(3S,4S) or (R)(3R,4R)(3R,4R) or (S)(3S,4S)(3S,4S) or (S)(3S,4S)(3R,4R) or (S)(3R,4R)(3S,4S) or (S)(3R,4R)(3R,4R) 4-[4-(2-{[5-chloro-1-(2,2-difluorocyclopropyl)-1H-pyrazol-4-yl]amino}-6-methylquinazolin-7-yl)-3-fluoropiperidin-1-yl]oxolan-3-ol] | >9.20
Cc1cc2cnc(Nc3cnn(C4CC4(F)F)c3C)nc2cc1[C@@H]1CCN([C@@H]2COC[C@@H]2O)C[C@H]1F (single isomer, unassigned) [Ex-4.146, (R)(3S,4S)(3S,4S) or (R)(3S,4S)(3R,4R) or (R)(3R,4R)(3S,4S) or (R)(3R,4R)(3R,4R) or (S)(3S,4S)(3S,4S) or (S)(3S,4S)(3R,4R) or (S)(3R,4R)(3S,4S) or (S)(3R,4R)(3R,4R) 4-[4-(2-{[1-(2,2-difluorocyclopropyl)-5-methyl-1H-pyrazol-4-yl]amino}-6-methylquinazolin-7-yl)-3-fluoropiperidin-1-yl]oxolan-3-ol] | >9.20
Cc1cc2cnc(Nc3cnn(C4CC4(F)F)c3Cl)nc2cc1[C@@H]1CCN([C@@]2(C)COC[C@H]2O)C[C@H]1F (single isomer, unassigned) [Ex-4.147, (R)(3S,4S)(3S,4S) or (R)(3S,4S)(3R,4R) or (R)(3R,4R)(3S,4S) or (R)(3R,4R)(3R,4R) or (S)(3S,4S)(3S,4S) or (S)(3S,4S)(3R,4R) or (S)(3R,4R)(3S,4S) or (S)(3R,4R)(3R,4R) 4-[4-(2-{[5-chloro-1-(2,2-difluorocyclopropyl)-1H-pyrazol-4-yl]amino}-6-methylquinazolin-7-yl)-3-fluoropiperidin-1-yl]-4-methyloxolan-3-ol] | >9.20
Cc1cc2cnc(Nc3cnn(C4CC4)c3Cl)nc2cc1[C@@H]1CCN([C@@]2(C)COC[C@H]2O)C[C@H]1F (single isomer, unassigned) [Ex-4.148, (3S,4S)(3S,4S) or (3S,4S)(3R,4R) or (3R,4R)(3S,4S) or (3R,4R)(3R,4R) 4-(4-{2-[(5-chloro-1-cyclopropyl-1H-pyrazol-4-yl)amino]-6-methylquinazolin-7-yl}-3-fluoropiperidin-1-yl)-4-methyloxolan-3-ol] | >9.20
Cc1cc2cnc(Nc3cnn(C4CC4)c3Cl)nc2cc1[C@@H]1CCN([C@]2(C)COC[C@@H]2O)C[C@H]1F (single isomer, unassigned) [Ex-4.149, (3S,4S)(3S,4S) or (3S,4S)(3R,4R) or (3R,4R)(3S,4S) or (3R,4R)(3R,4R) 4-(4-{2-[(5-chloro-1-cyclopropyl-1H-pyrazol-4-yl)amino]-6-methylquinazolin-7-yl}-3-fluoropiperidin-1-yl)-4-methyloxolan-3-ol] | >9.20
Cc1cc2cnc(Nc3cnn(C4CC4)c3Cl)nc2cc1[C@@H]1CCN([C@@H]2COC[C@@H]2O)C[C@H]1F (single isomer, unassigned) [Ex-4.150, (3S,4S)(3S,4S) or (3S,4S)(3R,4R) or (3R,4R)(3S,4S) or (3R,4R)(3R,4R) 4-(4-{2-[(5-chloro-1-cyclopropyl-1H-pyrazol-4-yl)amino]-6-methylquinazolin-7-yl}-3-fluoropiperidin-1-yl)oxolan-3-ol] | >9.20
O[C@H]1COC[C@H]1N1CCC(c2cc3nc(Nc4cnn(C56CC(C5)C6)c4)ncc3cc2Cl)CC1 (single isomer, unassigned) [Ex-4.151, (3S,4S) or (3R,4R) 4-[4-(2-{[1-(bicyclo[1.1.1]pentan-1-yl)-1H-pyrazol-4-yl]amino}-6-chloroquinazolin-7-yl)piperidin-1-yl]oxolan-3-ol] | 8.98
O[C@@H]1COC[C@@H]1N1CCC(c2cc3nc(Nc4cnn(C56CC(C5)C6)c4)ncc3cc2Cl)CC1 (single isomer, unassigned) [Ex-4.152, (3S,4S) or (3R,4R) 4-[4-(2-{[1-(bicyclo[1.1.1]pentan-1-yl)-1H-pyrazol-4-yl]amino}-6-chloroquinazolin-7-yl)piperidin-1-yl]oxolan-3-ol] | >9.20
O[C@@H]1COC[C@@H]1N1CC[C@@H](c2cc3nc(Nc4cnn(C56CC(C5)C6)c4)ncc3cc2Cl)[C@H](F)C1 (single isomer, unassigned) [Ex-4.153, (3S,4S)(3S,4S) or (3S,4S)(3R,4R) or (3R,4R)(3S,4S) or (3R,4R)(3R,4R) 4-[4-(2-{[1-(bicyclo[1.1.1]pentan-1-yl)-1H-pyrazol-4-yl]amino}-6-chloroquinazolin-7-yl)-3-fluoropiperidin-1-yl]oxolan-3-ol] | >9.20
